Experimental data published in US8283361B2 (AstraZeneca AB, priority 2008, dated 2012).

What follows are molecules tested against S. aureus GyrB ATPase (Staphylococcus aureus, UniProt P0A0K8) (assay: biochemical). Settings: compound at 1 μM; one value per test if tested more than once; read-out: % Inhibition of S. aureus GyrB ATPase.
In short: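 IC50 values derive from 10-point titrations of compound (in DMSO). Phosphate formed from 250 μM ATP was quantified by acidic molybdate/malachite green after quenching.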

S. aureus GyrB ATPase, sequence (P0A0K8 whole entry): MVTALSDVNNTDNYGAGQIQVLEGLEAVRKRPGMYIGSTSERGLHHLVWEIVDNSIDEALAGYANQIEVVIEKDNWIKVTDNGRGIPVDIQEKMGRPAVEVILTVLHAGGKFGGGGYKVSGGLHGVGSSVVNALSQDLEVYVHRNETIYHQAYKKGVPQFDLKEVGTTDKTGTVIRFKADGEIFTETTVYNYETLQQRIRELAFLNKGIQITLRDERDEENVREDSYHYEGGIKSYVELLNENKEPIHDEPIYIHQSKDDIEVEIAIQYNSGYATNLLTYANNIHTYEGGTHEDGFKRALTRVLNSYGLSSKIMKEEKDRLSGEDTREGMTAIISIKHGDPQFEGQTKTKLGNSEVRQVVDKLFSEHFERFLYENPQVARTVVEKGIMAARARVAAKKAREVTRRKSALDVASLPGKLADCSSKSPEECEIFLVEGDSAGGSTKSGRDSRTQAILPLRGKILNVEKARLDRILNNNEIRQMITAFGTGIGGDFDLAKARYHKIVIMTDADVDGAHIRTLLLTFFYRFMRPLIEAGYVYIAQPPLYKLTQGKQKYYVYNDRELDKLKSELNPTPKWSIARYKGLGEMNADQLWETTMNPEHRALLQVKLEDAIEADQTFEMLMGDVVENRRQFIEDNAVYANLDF
S. aureus GyrB ATPase, sequence (P0AES4 whole entry, further chain): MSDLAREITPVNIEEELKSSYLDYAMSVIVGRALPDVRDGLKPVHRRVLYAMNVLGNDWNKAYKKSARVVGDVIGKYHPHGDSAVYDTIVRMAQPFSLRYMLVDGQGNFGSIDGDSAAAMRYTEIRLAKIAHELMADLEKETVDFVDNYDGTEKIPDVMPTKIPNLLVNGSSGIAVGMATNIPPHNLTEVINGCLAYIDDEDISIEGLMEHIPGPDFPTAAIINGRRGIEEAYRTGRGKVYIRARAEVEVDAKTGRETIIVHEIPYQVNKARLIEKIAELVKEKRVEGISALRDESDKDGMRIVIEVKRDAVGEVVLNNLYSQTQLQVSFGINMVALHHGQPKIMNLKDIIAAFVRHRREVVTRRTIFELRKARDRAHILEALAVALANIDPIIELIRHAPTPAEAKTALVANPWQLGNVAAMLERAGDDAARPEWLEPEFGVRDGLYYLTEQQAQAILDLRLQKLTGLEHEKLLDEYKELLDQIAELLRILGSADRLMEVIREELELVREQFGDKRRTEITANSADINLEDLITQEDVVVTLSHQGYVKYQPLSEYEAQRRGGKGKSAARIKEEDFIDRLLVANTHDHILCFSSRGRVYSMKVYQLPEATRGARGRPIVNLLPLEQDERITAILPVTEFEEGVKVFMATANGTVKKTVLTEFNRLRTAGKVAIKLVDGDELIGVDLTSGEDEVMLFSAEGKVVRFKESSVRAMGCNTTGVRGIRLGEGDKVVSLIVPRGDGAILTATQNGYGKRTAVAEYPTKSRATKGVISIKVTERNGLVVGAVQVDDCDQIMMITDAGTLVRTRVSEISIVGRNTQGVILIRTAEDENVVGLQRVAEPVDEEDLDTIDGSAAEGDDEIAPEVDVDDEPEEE

SMILES	inhibition at 1 µM [%]
CCCn1cc(C(=O)NCCN2CCOCC2)c(=O)c2ccc(-c3cnc(NC(=O)NCC)cc3-c3nc(C(F)(F)F)cs3)cc21 [Example 351, 7-{6-[(ethylcarbamoyl)amino]-4-[4-(trifluoromethyl)-1,3-thiazol-2-yl]pyridin-3-yl}-N-[2-(morpholin-4-yl)ethyl]-4-oxo-1-propyl-1,4-dihydroquinoline-3-carboxamide]	95
CCCn1cc(C(=O)NCCN2CCN(C)CC2)c(=O)c2ccc(-c3cnc(NC(=O)NCC)cc3-c3nc(C(F)(F)F)cs3)cc21 [Example 352, 7-{6-[(Ethylcarbamoyl)amino]-4-[4-(trifluoromethyl)-1,3-thiazol-2-yl]pyridin-3-yl}-N-[2-(4-methylpiperazin-1-yl)ethyl]-4-oxo-1-propyl-1,4-dihydroquinoline-3-carboxamide]	88
CCNC(=O)Nc1cc(-c2nc(C(F)(F)F)cs2)c(-c2ccc3c(=O)c(C(=O)NC)cn(Cc4ccccc4)c3c2)cn1 [Example 353, 1-Benzyl-7-{6-[(ethylcarbamoyl)amino]-4-[4-(trifluoromethyl)-1,3-thiazol-2-yl]pyridin-3-yl}-N-methyl-4-oxo-1,4-dihydroquinoline-3-carboxamide]	99
CCNC(=O)Nc1cc(-c2nc(C(F)(F)F)cs2)c(-c2ccc3c(=O)c(C(=O)NCCO)cn(Cc4ccccc4)c3c2)cn1 [Example 354, 1-Benzyl-7-{6-[(ethylcarbamoyl)amino]-4-[4-(trifluoromethyl)-1,3-thiazol-2-yl]pyridin-3-yl}-N-(2-hydroxyethyl)-4-oxo-1,4-dihydroquinoline-3-carboxamide]	98
CCNC(=O)Nc1cc(-c2nc(C(F)(F)F)cs2)c(-c2ccc3c(=O)c(C(=O)NCCCO)cn(Cc4ccccc4)c3c2)cn1 [Example 355, 1-Benzyl-7-{6-[(ethylcarbamoyl)amino]-4-[4-(trifluoromethyl)-1,3-thiazol-2-yl]pyridin-3-yl}-N-(3-hydroxypropyl)-4-oxo-1,4-dihydroquinoline-3-carboxamide]	87
CCNC(=O)Nc1cc(-c2nc(C(F)(F)F)cs2)c(-c2ccc3c(=O)c(C(=O)NCCN(C)C)cn(Cc4ccccc4)c3c2)cn1 [Example 356, 1-Benzyl-N-[2-(dimethylamino)ethyl]-7-{6-[(ethylcarbamoyl)amino]-4-[4-(trifluoromethyl)-1,3-thiazol-2-yl]pyridin-3-yl}-4-oxo-1,4-dihydroquinoline-3-carboxamide]	85
CCNC(=O)Nc1cc(-c2nc(C(F)(F)F)cs2)c(-c2ccc3c(=O)c(C(=O)NCCN4CCOCC4)cn(Cc4ccccc4)c3c2)cn1 [Example 357, 1-Benzyl-7-{6-[(ethylcarbamoyl)amino]-4-[4-(trifluoromethyl)-1,3-thiazol-2-yl]pyridin-3-yl}-N-[2-(morpholin-4-yl)ethyl]-4-oxo-1,4-dihydroquinoline-3-carboxamide]	87
CCNC(=O)Nc1cc(-c2nc(C(F)(F)F)cs2)c(-c2ccc3c(=O)c(C(=O)NCCN4CCN(C)CC4)cn(Cc4ccccc4)c3c2)cn1 [Example 358, 1-Benzyl-7-{6-[(ethylcarbamoyl)amino]-4-[4-(trifluoromethyl)-1,3-thiazol-2-yl]pyridin-3-yl}-N-[2-(4-methylpiperazin-1-yl)ethyl]-4-oxo-1,4-dihydroquinoline-3-carboxamide]	95
CCNC(=O)Nc1cc(-c2nc(C(F)(F)F)cs2)c(-c2ccc3c(=O)c(C(=O)NCCCO)cn(Cc4cccnc4)c3c2)cn1 [Example 359, 7-{6-[(ethylcarbamoyl)amino]-4-[4-(trifluoromethyl)-1,3-thiazol-2-yl]pyridin-3-yl}-N-(3-hydroxypropyl)-4-oxo-1-(pyridin-3-ylmethyl)-1,4-dihydroquinoline-3-carboxamide]	92
CCNC(=O)Nc1cc(-c2nc(C(F)(F)F)cs2)c(-c2ccc3c(=O)c(C(=O)NCCN4CCOCC4)cn(Cc4cccnc4)c3c2)cn1 [Example 361, 7-{6-[(ethylcarbamoyl)amino]-4-[4-(trifluoromethyl)-1,3-thiazol-2-yl]pyridin-3-yl}-N-[2-(morpholin-4-yl)ethyl]-4-oxo-1-(pyridin-3-ylmethyl)-1,4-dihydroquinoline-3-carboxamide]	97
CCNC(=O)Nc1cc(-c2nc(C(F)(F)F)cs2)c(-c2ccc3c(=O)c(C(=O)NCCN4CCN(C)CC4)cn(Cc4cccnc4)c3c2)cn1 [Example 362, 7-{6-[(ethylcarbamoyl)amino]-4-[4-(trifluoromethyl)-1,3-thiazol-2-yl]pyridin-3-yl}-N-[2-(4-methylpiperazin-1-yl)ethyl]-4-oxo-1-(pyridin-3-ylmethyl)-1,4-dihydroquinoline-3-carboxamide]	94
CCNC(=O)Nc1cc(-c2nc(C(F)(F)F)cs2)c(-c2ccc3c(=O)c(C(=O)NC)cn(CCO)c3c2)cn1 [Example 363, 7-{6-[(Ethylcarbamoyl)amino]-4-[4-(trifluoromethyl)-1,3-thiazol-2-yl]pyridin-3-yl}-1-(2-hydroxyethyl)-N-methyl-4-oxo-1,4-dihydroquinoline-3-carboxamide]	95
CCNC(=O)Nc1cc(-c2nc(C(F)(F)F)cs2)c(-c2ccc3c(=O)c(C(=O)NCCO)cn(CCO)c3c2)cn1 [Example 364, 7-{6-[(Ethylcarbamoyl)amino]-4-[4-(trifluoromethyl)-1,3-thiazol-2-yl]pyridin-3-yl}-N,1-bis(2-hydroxyethyl)-4-oxo-1,4-dihydroquinoline-3-carboxamide]	97
CCNC(=O)Nc1cc(-c2nc(C(F)(F)F)cs2)c(-c2ccc3c(=O)c(C(=O)NCCCO)cn(CCO)c3c2)cn1 [Example 365, 7-{6-[(ethylcarbamoyl)amino]-4-[4-(trifluoromethyl)-1,3-thiazol-2-yl]pyridin-3-yl}-1-(2-hydroxyethyl)-N-(3-hydroxypropyl)-4-oxo-1,4-dihydroquinoline-3-carboxamide]	99
CCNC(=O)Nc1cc(-c2nc(C(F)(F)F)cs2)c(-c2ccc3c(=O)c(C(=O)NCCN(C)C)cn(CCO)c3c2)cn1 [Example 366, N-[2-(dimethylamino)ethyl]-7-{6-[(ethylcarbamoyl)amino]-4-[4-(trifluoromethyl)-1,3-thiazol-2-yl]pyridin-3-yl}-1-(2-hydroxyethyl)-4-oxo-1,4-dihydroquinoline-3-carboxamide]	99
CCNC(=O)Nc1cc(-c2nc(C(F)(F)F)cs2)c(-c2ccc3c(=O)c(C(=O)NCCN4CCOCC4)cn(CCO)c3c2)cn1 [Example 367, 7-{6-[(ethylcarbamoyl)amino]-4-[4-(trifluoromethyl)-1,3-thiazol-2-yl]pyridin-3-yl}-1-(2-hydroxyethyl)-N-[2-(morpholin-4-yl)ethyl]-4-oxo-1,4-dihydroquinoline-3-carboxamide]	100
CCNC(=O)Nc1cc(-c2nc(C(F)(F)F)cs2)c(-c2ccc3c(=O)c(C(=O)NCCN4CCN(C)CC4)cn(CCO)c3c2)cn1 [Example 368, 7-{6-[(Ethylcarbamoyl)amino]-4-[4-(trifluoromethyl)-1,3-thiazol-2-yl]pyridin-3-yl}-1-(2-hydroxyethyl)-N-[2-(4-methylpiperazin-1-yl)ethyl]-4-oxo-1,4-dihydroquinoline-3-carboxamide]	87
CCNC(=O)Nc1cc(-c2nc(C(F)(F)F)cs2)c(-c2ccc3c(=O)c(C(=O)NC)cn(CCOC)c3c2)cn1 [Example 369, 7-{6-[(Ethylcarbamoyl)amino]-4-[4-(trifluoromethyl)-1,3-thiazol-2-yl]pyridin-3-yl}-1-(2-methoxyethyl)-N-methyl-4-oxo-1,4-dihydroquinoline-3-carboxamide]	97
CCNC(=O)Nc1cc(-c2nc(C(F)(F)F)cs2)c(-c2ccc3c(=O)c(C(=O)NCCO)cn(CCOC)c3c2)cn1 [Example 370, 7-{6-[(Ethylcarbamoyl)amino]-4-[4-(trifluoromethyl)-1,3-thiazol-2-yl]pyridin-3-yl}-N-(2-hydroxyethyl)-1-(2-methoxyethyl)-4-oxo-1,4-dihydroquinoline-3-carboxamide]	98
CCNC(=O)Nc1cc(-c2nc(C(F)(F)F)cs2)c(-c2ccc3c(=O)c(C(=O)NCCCO)cn(CCOC)c3c2)cn1 [Example 371, 7-{6-[(Ethylcarbamoyl)amino]-4-[4-(trifluoromethyl)-1,3-thiazol-2-yl]pyridin-3-yl}-N-(3-hydroxypropyl)-1-(2-methoxyethyl)-4-oxo-1,4-dihydroquinoline-3-carboxamide]	98
CCNC(=O)Nc1cc(-c2nc(C(F)(F)F)cs2)c(-c2ccc3c(=O)c(C(=O)NCCN(C)C)cn(CCOC)c3c2)cn1 [Example 372, N-[2-(dimethylamino)ethyl]-7-{6-[(ethylcarbamoyl)amino]-4-[4-(trifluoromethyl)-1,3-thiazol-2-yl]pyridin-3-yl}-1-(2-methoxyethyl)-4-oxo-1,4-dihydroquinoline-3-carboxamide]	98
CCNC(=O)Nc1cc(-c2nc(C(F)(F)F)cs2)c(-c2ccc3c(=O)c(C(=O)NCCN4CCN(C)CC4)cn(CCOC)c3c2)cn1 [Example 373, 7-{6-[(Ethylcarbamoyl)amino]-4-[4-(trifluoromethyl)-1,3-thiazol-2-yl]pyridin-3-yl}-1-(2-methoxyethyl)-N-[2-(4-methylpiperazin-1-yl)ethyl]-4-oxo-1,4-dihydroquinoline-3-carboxamide]	94
CCNC(=O)Nc1cc(-c2nc(C(F)(F)F)cs2)c(-c2ccc3c(=O)c(C(=O)NC)cn(CC4CC4)c3c2)cn1 [Example 374, 1-(Cyclopropylmethyl)-7-{6-[(ethylcarbamoyl)amino]-4-[4-(trifluoromethyl)-1,3-thiazol-2-yl]pyridin-3-yl}-N-methyl-4-oxo-1,4-dihydroquinoline-3-carboxamide]	86
CCNC(=O)Nc1cc(-c2nc(C(F)(F)F)cs2)c(-c2ccc3c(=O)c(C(=O)NCCO)cn(CC4CC4)c3c2)cn1 [Example 375, 1-(Cyclopropylmethyl)-7-{6-[(ethylcarbamoyl)amino]-4-[4-(trifluoromethyl)-1,3-thiazol-2-yl]pyridin-3-yl}-N-(2-hydroxyethyl)-4-oxo-1,4-dihydroquinoline-3-carboxamide]	99
